# Assays:
# c-Kit = target: T1, c-Kit (Homo sapiens, UniProt P10721); assay: Inhibition of receptor tyrosine kinases activity assay; assay type: biochemical
# T1 construct: purchased invitrogen PV3081
# PDGFRβ = target: T2, PDGFRβ (Homo sapiens, UniProt P09619); assay: as above; assay type: biochemical
# T2 construct: purchased invitrogen PV3082
# Flt1 = target: T3, Flt1 (Homo sapiens, UniProt P17948); assay: as above; assay type: biochemical
# T3 construct: purchased invitrogen PV3666
# Ret = target: T4, Ret (Homo sapiens, UniProt P07949); assay: as above; assay type: biochemical
# T4 construct: purchased invitrogen PV3819
# Flt3 = target: T5, Flt3 (Homo sapiens, UniProt P36888); assay: as above; assay type: biochemical
# T5 construct: purchased invitrogen PV3182
# T5 sequence (P36888 27-993): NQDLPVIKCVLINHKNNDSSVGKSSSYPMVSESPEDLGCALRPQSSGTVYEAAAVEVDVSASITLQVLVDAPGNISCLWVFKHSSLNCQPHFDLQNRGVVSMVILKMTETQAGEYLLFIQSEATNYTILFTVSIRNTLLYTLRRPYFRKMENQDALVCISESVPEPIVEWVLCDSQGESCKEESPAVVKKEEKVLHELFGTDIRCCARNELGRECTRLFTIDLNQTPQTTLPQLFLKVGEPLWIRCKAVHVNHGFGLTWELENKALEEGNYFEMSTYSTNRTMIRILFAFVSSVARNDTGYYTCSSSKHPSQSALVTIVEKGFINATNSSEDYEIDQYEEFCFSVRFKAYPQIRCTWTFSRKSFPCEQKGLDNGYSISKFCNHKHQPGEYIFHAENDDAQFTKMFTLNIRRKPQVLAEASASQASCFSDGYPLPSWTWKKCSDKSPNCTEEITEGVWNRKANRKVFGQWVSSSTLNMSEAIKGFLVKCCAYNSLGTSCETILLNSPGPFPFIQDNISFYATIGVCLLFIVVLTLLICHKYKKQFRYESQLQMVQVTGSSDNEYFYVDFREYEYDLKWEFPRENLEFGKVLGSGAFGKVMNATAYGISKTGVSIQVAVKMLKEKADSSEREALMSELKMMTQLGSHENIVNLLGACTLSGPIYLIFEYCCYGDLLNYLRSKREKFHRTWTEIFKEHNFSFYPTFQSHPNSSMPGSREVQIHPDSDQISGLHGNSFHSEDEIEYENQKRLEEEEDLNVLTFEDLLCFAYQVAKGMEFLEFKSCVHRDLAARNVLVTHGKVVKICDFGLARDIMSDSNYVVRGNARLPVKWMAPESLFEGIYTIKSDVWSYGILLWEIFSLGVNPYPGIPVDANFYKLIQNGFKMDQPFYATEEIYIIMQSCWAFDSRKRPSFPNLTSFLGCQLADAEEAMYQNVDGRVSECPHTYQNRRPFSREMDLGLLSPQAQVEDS
# [1] = test system: HT-29 (human colon cancer cells); assay: Inhibition of cancer cell proliferation assay (SRB); assay type: cell-based; conditions: mean ± SD, 72 hours
# Text: The cellular assay described here is to test the proliferation inhibition activity of the compound of Example 53 on the cancer cells in vitro using Sulforhodamine B (SRB) method. The cancer cells include HUVEC (human umbilical vein endothelial cells), HT-29 (human colon cancer cells), Mo7e (human megakaryoblastic leukemia cell line), A431 (human epidermoid carcinoma cells), NCI—H526 (small-cell lung cancer cells), and SK—BR-3 (human breast cancer cells).
# HT-29 cancer cell: Cell Bank, Chinese Academy of Sciences, TCHu103;
# The following in vitro assay is to determine the activity of the tested compound for inhibiting the proliferation of the cancer cells mentioned above. The activity is represented by the IC50 value. The general procedures of the assay are given as follows: Cancer cells mentioned above were chosen and seeded to 96-well cell culture plate at a suitable concentration (e.g., 5000 cells/mL medium). These cells then were incubated in carbon dioxide (CO2) incubator until they reached 85% confluency. […] 72 hours later, the activity of the tested compound for inhibiting the cell proliferation was determined by using Sulforhodamine B (SRB) method. IC50 value on tested cells is calculated by the data of inhibition rates of serial concentrations of the tested compound.
# HT-29(colon cancer) = assay: Anticancer pharmacodynamic assay in vivo, xenograft; design: species or system nude mice; conditions: for T/C (%): relative tumor volume (%): HT-29 xenograft, d0-20
# Text: (§1) The test method and steps are the same with those disclosed in “PHARMACODYNAMIC ASSAYS IN VIVO” of the present invention. The therapeutic effects of the compound of Example 53 against xenografts of colon cancer, non-small cell lung cancer, liver cancer, melanoma, renal cancer in nude mice are estimated.
# HT-29(colon cancer): Cell Bank, Chinese Academy of Sciences, TCHu103;
# (§2) Nude mice were hypodermic inoculated HT-29 human colon cancer cell. After tumors grew to 100-300 mm^3, mice were randomly divided into teams (d0). The volume of tumors and weigh of the mice were measured for 2-3 times per week. The calculation formula of the volume of tumor (V) is: V=½×a×b^2, a: length of tumor, b: width of tumor.
# [2] = test system: Calu-3(non-small cell lung cancer); assay: as above; design: species or system nude mice; conditions: for T/C (%): relative tumor volume (%) / Note: PR (partial regression), animals: Calu-3 xenograft, d0-20; for Note: PR (partial regression), animals: treatment group n = 6
# Text: as §1
# Calu-3(non-small cell lung cancer): Cell Bank, Chinese Academy of Sciences, TCHu157;
# as §2
# Bel-7402(liver cancer) = assay: as above; design: species or system nude mice; conditions: for T/C (%): relative tumor volume (%): Bel-7402 xenograft
# Text: as §1
# Bel-7402(liver cancer): Cell Bank, Chinese Academy of Sciences, TCHu10;
# as §2
# A375 (melanoma) = assay: as above; design: species or system nude mice; conditions: for T/C (%): relative tumor volume (%): A375 xenograft
# Text: as §1
# A375 (melanoma): Cell Bank, Chinese Academy of Sciences, TCHu4;
# as §2
# [3] = mean ± SD, 20 μM ATP, 25° C., 45 minutes
# T3 sequence (P17948 27-1338): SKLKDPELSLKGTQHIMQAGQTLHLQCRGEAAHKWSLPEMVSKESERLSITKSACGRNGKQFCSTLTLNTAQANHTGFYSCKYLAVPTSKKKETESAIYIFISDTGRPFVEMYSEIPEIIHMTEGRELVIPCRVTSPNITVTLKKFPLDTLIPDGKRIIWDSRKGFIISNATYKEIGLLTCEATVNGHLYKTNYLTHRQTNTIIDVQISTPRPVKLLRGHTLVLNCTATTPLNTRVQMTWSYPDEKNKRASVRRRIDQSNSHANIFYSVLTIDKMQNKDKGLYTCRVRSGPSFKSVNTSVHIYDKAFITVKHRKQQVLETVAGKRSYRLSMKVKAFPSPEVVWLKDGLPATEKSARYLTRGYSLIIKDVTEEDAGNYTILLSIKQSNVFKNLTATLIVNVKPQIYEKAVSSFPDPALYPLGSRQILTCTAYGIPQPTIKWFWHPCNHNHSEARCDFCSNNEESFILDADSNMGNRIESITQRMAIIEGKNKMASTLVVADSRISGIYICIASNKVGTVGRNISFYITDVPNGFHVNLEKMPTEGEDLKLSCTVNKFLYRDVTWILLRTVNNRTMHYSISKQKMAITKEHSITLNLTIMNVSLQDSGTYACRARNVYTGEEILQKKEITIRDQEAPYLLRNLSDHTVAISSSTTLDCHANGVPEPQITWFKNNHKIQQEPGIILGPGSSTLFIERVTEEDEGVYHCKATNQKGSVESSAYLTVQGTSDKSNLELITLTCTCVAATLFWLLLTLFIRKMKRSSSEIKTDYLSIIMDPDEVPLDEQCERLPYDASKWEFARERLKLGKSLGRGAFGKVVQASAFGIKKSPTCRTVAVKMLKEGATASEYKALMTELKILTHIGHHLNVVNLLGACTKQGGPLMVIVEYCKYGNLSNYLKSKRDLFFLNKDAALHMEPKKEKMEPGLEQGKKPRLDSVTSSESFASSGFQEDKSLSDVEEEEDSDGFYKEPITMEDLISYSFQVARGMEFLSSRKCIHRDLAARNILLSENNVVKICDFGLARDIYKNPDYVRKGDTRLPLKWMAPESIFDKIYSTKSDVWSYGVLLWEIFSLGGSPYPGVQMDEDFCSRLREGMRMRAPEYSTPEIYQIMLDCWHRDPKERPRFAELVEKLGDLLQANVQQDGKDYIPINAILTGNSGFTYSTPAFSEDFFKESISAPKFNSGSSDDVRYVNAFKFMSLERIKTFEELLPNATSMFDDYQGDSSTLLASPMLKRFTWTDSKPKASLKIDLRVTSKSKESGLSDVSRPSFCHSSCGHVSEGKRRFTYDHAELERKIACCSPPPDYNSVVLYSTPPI
# T4 sequence (P07949 29-1114): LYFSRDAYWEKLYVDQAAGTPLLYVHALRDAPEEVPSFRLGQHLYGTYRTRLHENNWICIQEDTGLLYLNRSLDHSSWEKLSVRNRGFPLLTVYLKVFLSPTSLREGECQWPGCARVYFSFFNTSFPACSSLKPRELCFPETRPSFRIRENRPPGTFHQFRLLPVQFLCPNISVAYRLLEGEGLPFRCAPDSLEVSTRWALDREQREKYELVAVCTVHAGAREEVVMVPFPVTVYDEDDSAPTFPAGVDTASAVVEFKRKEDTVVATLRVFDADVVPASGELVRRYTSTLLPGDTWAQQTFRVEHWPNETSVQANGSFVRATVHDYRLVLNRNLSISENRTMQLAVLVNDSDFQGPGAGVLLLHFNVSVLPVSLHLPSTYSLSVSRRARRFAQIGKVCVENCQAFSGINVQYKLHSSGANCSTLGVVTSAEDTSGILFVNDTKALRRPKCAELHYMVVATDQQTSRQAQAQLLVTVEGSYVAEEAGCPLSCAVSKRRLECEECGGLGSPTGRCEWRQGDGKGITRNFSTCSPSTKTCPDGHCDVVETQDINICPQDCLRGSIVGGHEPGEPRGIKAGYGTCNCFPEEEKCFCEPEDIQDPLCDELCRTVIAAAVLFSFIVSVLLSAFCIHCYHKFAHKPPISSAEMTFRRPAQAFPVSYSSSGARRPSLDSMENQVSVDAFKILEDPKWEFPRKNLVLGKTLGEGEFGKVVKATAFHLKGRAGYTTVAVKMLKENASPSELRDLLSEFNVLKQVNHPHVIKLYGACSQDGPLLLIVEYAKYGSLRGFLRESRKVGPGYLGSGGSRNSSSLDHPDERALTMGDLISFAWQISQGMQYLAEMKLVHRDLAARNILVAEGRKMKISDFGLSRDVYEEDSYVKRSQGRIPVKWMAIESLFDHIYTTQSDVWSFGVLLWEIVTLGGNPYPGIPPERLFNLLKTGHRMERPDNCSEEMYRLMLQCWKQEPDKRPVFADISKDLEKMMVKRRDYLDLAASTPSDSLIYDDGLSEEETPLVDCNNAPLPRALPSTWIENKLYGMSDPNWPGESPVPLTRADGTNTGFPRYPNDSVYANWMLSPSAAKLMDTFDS
# T1 sequence (P10721 26-976): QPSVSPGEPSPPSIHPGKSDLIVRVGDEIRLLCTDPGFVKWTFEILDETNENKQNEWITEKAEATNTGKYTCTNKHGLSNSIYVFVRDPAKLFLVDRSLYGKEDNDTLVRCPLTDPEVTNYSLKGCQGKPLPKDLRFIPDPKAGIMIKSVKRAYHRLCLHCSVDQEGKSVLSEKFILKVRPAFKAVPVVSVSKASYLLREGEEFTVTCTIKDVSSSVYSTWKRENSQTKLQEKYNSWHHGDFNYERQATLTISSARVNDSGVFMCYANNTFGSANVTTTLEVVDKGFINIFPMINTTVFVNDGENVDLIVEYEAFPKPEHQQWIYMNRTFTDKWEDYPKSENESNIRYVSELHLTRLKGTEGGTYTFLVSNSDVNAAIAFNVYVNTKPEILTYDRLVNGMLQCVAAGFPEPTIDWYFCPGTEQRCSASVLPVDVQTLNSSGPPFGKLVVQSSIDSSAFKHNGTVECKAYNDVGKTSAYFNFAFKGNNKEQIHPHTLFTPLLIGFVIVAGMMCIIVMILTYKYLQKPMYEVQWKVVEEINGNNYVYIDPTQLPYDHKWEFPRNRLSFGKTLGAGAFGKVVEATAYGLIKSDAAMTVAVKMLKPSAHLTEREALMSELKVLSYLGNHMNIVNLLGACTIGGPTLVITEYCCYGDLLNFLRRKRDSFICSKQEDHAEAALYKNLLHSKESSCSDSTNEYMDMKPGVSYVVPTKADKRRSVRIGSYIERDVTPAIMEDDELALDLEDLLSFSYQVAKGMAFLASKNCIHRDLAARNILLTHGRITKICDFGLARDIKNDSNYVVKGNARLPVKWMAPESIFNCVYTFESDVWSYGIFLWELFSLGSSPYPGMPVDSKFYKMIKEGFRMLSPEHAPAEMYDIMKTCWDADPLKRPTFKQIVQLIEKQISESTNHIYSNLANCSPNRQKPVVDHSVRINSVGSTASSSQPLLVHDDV
# T2 sequence (P09619 33-1106): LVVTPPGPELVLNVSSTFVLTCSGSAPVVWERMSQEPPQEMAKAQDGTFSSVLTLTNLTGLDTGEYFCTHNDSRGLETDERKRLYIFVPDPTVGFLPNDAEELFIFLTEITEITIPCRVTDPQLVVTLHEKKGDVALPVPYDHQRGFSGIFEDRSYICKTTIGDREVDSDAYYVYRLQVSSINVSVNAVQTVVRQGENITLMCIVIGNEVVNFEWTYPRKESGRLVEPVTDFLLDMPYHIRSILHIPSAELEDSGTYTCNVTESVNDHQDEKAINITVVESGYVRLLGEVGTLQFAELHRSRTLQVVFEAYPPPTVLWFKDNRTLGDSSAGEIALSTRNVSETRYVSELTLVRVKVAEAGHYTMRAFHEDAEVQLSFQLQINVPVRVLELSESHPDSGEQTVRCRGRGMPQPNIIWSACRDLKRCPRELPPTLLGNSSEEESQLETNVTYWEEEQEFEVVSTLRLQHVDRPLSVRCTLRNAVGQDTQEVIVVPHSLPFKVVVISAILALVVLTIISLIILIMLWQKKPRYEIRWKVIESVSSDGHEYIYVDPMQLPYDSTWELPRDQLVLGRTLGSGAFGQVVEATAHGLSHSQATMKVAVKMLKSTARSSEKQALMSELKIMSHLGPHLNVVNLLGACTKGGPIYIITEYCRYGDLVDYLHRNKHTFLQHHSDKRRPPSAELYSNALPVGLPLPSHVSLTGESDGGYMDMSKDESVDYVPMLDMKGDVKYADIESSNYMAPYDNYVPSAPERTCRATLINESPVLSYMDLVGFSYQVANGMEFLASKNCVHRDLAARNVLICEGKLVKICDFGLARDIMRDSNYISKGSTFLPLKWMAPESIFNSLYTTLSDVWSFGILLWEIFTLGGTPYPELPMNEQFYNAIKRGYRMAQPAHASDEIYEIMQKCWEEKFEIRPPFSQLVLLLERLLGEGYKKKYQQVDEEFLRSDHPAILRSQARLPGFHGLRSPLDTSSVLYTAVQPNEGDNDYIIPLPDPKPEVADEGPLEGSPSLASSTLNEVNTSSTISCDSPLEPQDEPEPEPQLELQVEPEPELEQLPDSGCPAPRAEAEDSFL
smiles,measurement,setting,value
"Cc1c(/C=C2\C(=O)Nc3ccc(F)cc32)[nH]c2c1C(=O)N(C[C@H](O)CN1CCOCC1)CCC2 [Example 53, (R,Z)-2-(5-Fluoro-2-oxo-1,2-dihydro-indol-3-ylidenemethyl)-5-(2-hydroxy-3-morpholin-4-yl-propyl)-3-methyl-5,6,7,8-tetrahydro-1H-pyrrolo[3,2-c]azepin-4-one]",inhibition of kinase activity (in words),c-Kit; c-Kit,obvious activity
same,IC50,c-Kit; [3],3.3 ± 3.6 nM
same,inhibition of kinase activity (in words),PDGFRβ; PDGFRβ,obvious activity
same,IC50,PDGFRβ; [3],41.5 ± 22.7 nM
same,inhibition of kinase activity (in words),Flt1; Flt1,obvious activity
same,IC50,Flt1; [3],30.9 ± 5.7 nM
same,inhibition of kinase activity (in words),Ret; Ret,obvious activity
same,IC50,Ret; [3],182 ± 6.4 nM
same,inhibition of kinase activity (in words),Flt3; Flt3,obvious activity
same,IC50,Flt3; [3],19.3 ± 3.1 nM
same,IC50,[1],2400 ± 1600 nM
same,anticancer activity against xenograft (in words),HT-29(colon cancer); HT-29 xenograft in nude mice,obvious anticancer activity
same,T/C (%): relative tumor volume (%),HT-29(colon cancer); 15 mg/kg p.o,49.4%
same,T/C (%): relative tumor volume (%),HT-29(colon cancer); 30 mg/kg p.o,48.5%
same,T/C (%): relative tumor volume (%),HT-29(colon cancer); 60 mg/kg p.o,31.6%
same,anticancer activity against xenograft (in words),[2]; Calu-3 xenograft in nude mice,obvious anticancer activity
same,T/C (%): relative tumor volume (%),[2]; 15 mg/kg p.o,26.3%
same,T/C (%): relative tumor volume (%),[2]; 30 mg/kg p.o,14.7%
same,"Note: PR (partial regression), animals",[2]; 30 mg/kg p.o,3/6(PR)
same,T/C (%): relative tumor volume (%),[2]; 60 mg/kg p.o,16.1%
same,"Note: PR (partial regression), animals",[2]; 60 mg/kg p.o,3/6(PR)
same,anticancer activity against xenograft (in words),Bel-7402(liver cancer); Bel-7402 xenograft in nude mice,obvious anticancer activity
same,T/C (%): relative tumor volume (%),Bel-7402(liver cancer); 15 mg/kg p.o d0-17,39.8%
same,T/C (%): relative tumor volume (%),Bel-7402(liver cancer); 30 mg/kg p.o d0-17,29.2%
same,T/C (%): relative tumor volume (%),Bel-7402(liver cancer); 60 mg/kg p.o d0-17,13.3%
same,anticancer activity against xenograft (in words),A375 (melanoma); A375 xenograft in nude mice,obvious anticancer activity
same,T/C (%): relative tumor volume (%),A375 (melanoma); 15 mg/kg p.o d0-16,82.5%
same,T/C (%): relative tumor volume (%),A375 (melanoma); 30 mg/kg p.o d0-16,58.5%
same,T/C (%): relative tumor volume (%),A375 (melanoma); 60 mg/kg p.o d0-16,46.4%
